The text below walks through data of article PMC3942691, “The Dipeptide Monoester Prodrugs of Floxuridine and Gemcitabine—Feasibility of Orally Administrable Nucleoside Analogs” (Pharmaceuticals, 2014).

One data set deals with AsPC-1 cells. Description: Cell proliferation assay (XTT) in AsPC-1 cells. In kind it is cell-based. Conditions: 24 h recovery. The protocol: (§1) Cell proliferation studies were conducted with Panc-1 and AsPC-1 cells. The cells were seeded into 96-well plates at 80,000 cells per well and allowed to attach/grow for 48 h before drug solutions were added. The culture medium (DMEM +10% fetal bovine serum or RPMI-1640 +10% fetal bovine serum) was removed and the cells were gently washed once with sterile pH 6.0 uptake buffer. Floxuridine, 5′-L-phenylalanyl-L-tyrosyl-floxuridine, gemcitabine and 5′-L-phenylalanyl-L-tyrosyl-gemcitabine were 2-fold serially diluted in pH 6.0 uptake buffer from 5 to 0.078 mmol/L. Buffer alone was used as a 100% viability control. The wash buffer was removed and 30 µL drug solution per well was added and incubated at 37 °C for 2 h in the cell incubator. After this time, the drug solutions were removed and the cells were again gently washed twice with sterile uptake buffer. The culture medium was then added to each well after washing. The cells were allowed to recover for 24 h before evaluating cell viability via 2,3-bis[2-methoxy-4-nitro-5-sulfophenyl]-2H-tetrazolium-5-carboxanilide inner salt (XTT) assays. A mixture (30 µL) containing XTT (1 mg/mL) in sterile RPMI-1640 without phenol red and phenazine methosulfate (N-methyldibenzopyrazine methyl sulfate in sterile PBS, 0.383 mg/mL) reagents were added to the cells and incubated at 37 °C for 1 h, after which the absorbance at 450 nm was read. The concentrations required to inhibit cell growth by 50% (GI50) were calculated using GraphPad Prism version 3.0 by nonlinear data fitting.
(In general: Tetrazolium assays rely on reduction of a dye to a coloured formazan, in cell work by metabolically active cells.)

The subject of a further data set is Caco-2 cells. Description: Uptake study in Caco-2 cells. Format: cell-based. As to conditions: 0.1 mM, 1 h. The protocol: (§2) Caco-2, Panc-1, and AsPC-1 cells were grown on a 6-well plate for 18, 6, and 6 days, respectively. Wells were rinsed with MES (pH 6.0) buffer twice. Fresh MES buffer was reapplied to each well and incubated at 37 °C for 15 min. Each drug was individually tested from freshly prepared solutions in MES buffer (0.1 mM, total 0.3 mL) with the presence and the absence of 10 mM glycyl-proline (Gly-Pro). The solution was placed in each well and incubated at 37 °C for 60 min. Drug solution was removed and 3 mL of ice-cold PBS was immediately placed in each well. Each well was rinsed with 3 mL of cold-PBS twice and 0.5 mL of methanol/H2O (1:1) containing 0.1% TFA was placed in each well. The cell suspension was collected and transferred to a new tube. Those tubes were spun at 1,000 × g at 4 °C for 5 min. The supernatant was mixed with equal amount of water with either 0.1% formic acid or 0.1% ammonium hydroxide for LC-MS analysis. The cell pullets were used to determine protein amount with the Bio-Rad DC Protein Assay using bovine serum albumin as a standard.
The LC-MS analytical method of 5′-mono amino acid ester prodrugs of floxuridine has been reported previously. The LC-MS analysis of dipeptide monoester prodrugs of floxuridine and gemcitabine along with their parent drugs was modified and performed in a similar manner. Briefly, LC-MS analysis of the uptake drug amount was performed in triplicate on LCMS-2010EV (Shimadzu Scientific Instruments, Kyoto, Japan) equipped with an ESI (electrospray ionization) source. The Shimadzu LC-MS system consisting of Shimadzu LC-20AD pumps with DGU-20A in-line vacuum degasser units, and SIL-20A HT autosampler with an InertSustain C-18, 2.1 × 50 mm, 3 µm particle size, (GL Sciences, Torrance, CA, USA) was used for the separation and the effluent from the column was introduced directly to the ionization source. The system was controlled by Shimadzu LCMS solution software (version 3) to collect and process data. All samples were run with Solvent A and Solvent B with Solvent B gradient changing from 0%–90% at a rate of 13.8%/min over a 22 min run. […]

The subject of data set [1] is Panc-1 cells. Description: Uptake study in Panc-1 cells. Format: cell-based. As to conditions: 0.1 mM, 1 h. The protocol: as §2
The LC-MS analytical method of 5′-mono amino acid ester prodrugs of floxuridine has been reported previously. The LC-MS analysis of dipeptide monoester prodrugs of floxuridine and gemcitabine along with their parent drugs was modified and performed in a similar manner. Briefly, LC-MS analysis of the uptake drug amount was performed in triplicate on LCMS-2010EV (Shimadzu Scientific Instruments, Kyoto, Japan) equipped with an ESI (electrospray ionization) source. The Shimadzu LC-MS system consisting of Shimadzu LC-20AD pumps with DGU-20A in-line vacuum degasser units, and SIL-20A HT autosampler with an InertSustain C-18, 2.1 × 50 mm, 3 µm particle size, (GL Sciences, Torrance, CA, USA) was used for the separation and the effluent from the column was introduced directly to the ionization source. The system was controlled by Shimadzu LCMS solution software (version 3) to collect and process data. All samples were run with Solvent A and Solvent B with Solvent B gradient changing from 0%–90% at a rate of 13.8%/min over a 22 min run. The mobile phase consisted of 0.1% TFA/water (Solvent A) and 0.1% TFA/acetonitrile (Solvent B) for gemcitabine, gemcitabine prodrug and floxuridine prodrug. The mobile phase consisted of 0.1% ammonium hydroxide/water (Solvent A) and 0.1% ammonium hydroxide /acetonitrile (Solvent B) for floxuridine. The ESI probe was operated with a detector voltage of 1.5 kV, CDL temperature of 250 °C, heat block of 200 °C, and nebulizing gas flow of […] in positive mode for gemcitabine prodrugs and their metabolites. The drying gas was N2 delivered at 0.1 MPa.

For data set [2], the system named is Panc-1 cells. As to the kind of experiment: Cell proliferation assay (XTT) in Panc-1 cells. Format: cell-based. On the procedure:
as §1

A short description of data set [3]: Enzymatic stability in Panc-1 cell homogenates. Format: in vitro ADME. Conditions: human, Panc-1 cell homogenates, pH 7.4; 500 µg/mL protein, 37 °C; read-out: Panc-1 cell homogenates t1/2. On the procedure: Confluent Caco-2, Panc-1, and AsPC-1cells were rinsed twice with phosphate buffered saline (PBS). The cells were lysed with phosphate buffer (pH 7.4) by ultrasonication (Micro ultrasonic cell disrupter Model KT40, Kontes, Vineland, NJ, USA), and pelleted by centrifugation for 5 min at 1,000 × g. Protein amount was quantified with the Bio-Rad (Hercules, CA, USA) DC Protein Assay using bovine serum albumin as a standard. The amount of protein was adjusted to 500 µg/mL and hydrolysis reactions were carried out in 96-well plates (Corning). Caco-2, Panc-1, and AsPC-1 cell suspensions (250 µL) were placed in triplicate wells, the reactions were started with the addition of substrate, and cells were incubated at 37 °C for 120 min. At the desired time point, sample aliquots (35 µL) were removed and added to acetonitrile (ACN, 150 µL) with 0.1% TFA. The mixtures were filtered with a 0.45 µm filters at 1,000 × g for 10 min at 4 °C. The filtrate was then analyzed via reverse-phase HPLC.
The stability samples of prodrugs and their metabolites, and perfusion samples were determined on an Agilent HPLC system (Agilent Technologies, Santa Clara, CA, USA). The HPLC system consisted of Agilent pumps (1100 series), an Agilent autosampler (1200 series), and an Agilent UV-Vis detector (1100 series) controlled by Chemstation® 32 software (version B.01.03). Samples were resolved in an Agilent Eclipse Plus C18 reverse-phase column (3.5 µm, 4.6 × 75 mm) equipped with a guard column. The mobile phase consisted of 0.1% TFA/water (Solvent A) and 0.1% TFA/acetonitrile (Solvent B) with the solvent B gradient changing from 0%–56% at a rate of […] during a 15 min run for gemcitabine and gemcitabine prodrugs. Standard curves generated for each prodrug and their parent drug were utilized for quantitation of integrated area under peaks. The detection wavelength was 254 nm and spectra were acquired in the 220–380 nm wavelength range. The detection wavelength for phenol red was 430 nm.
The experiments concerning drug and their prodrug stability were performed at 37 °C in 0.01 N HCl, SIF (pH 6.0), and pH 7.4 phosphate buffer. […] Prodrug metabolites such as floxuridine, 5-fluorouracil (5-FU), gemcitabine, 2′-deoxy-2′,2′-difluorouridine, uracil, and cytosine were monitored along with prodrug disappearance in this experiment.

The mark [4] stands for this setting: Homo sapiens, ASPC1, 2 h exposure.
Setting [5] is: Homo sapiens, PANC-1, 2 h exposure, 24 h recovery, XTT.

“2′,2′-difluoro-2′-deoxyuridine [Gemcitabine]”: the results for the 50% growth inhibitory concentration (GI50) with AsPC-1 cells (2 h exposure) and in the data set on Panc-1 cells [2] (tested 5 to 0.078 mmol/L) were 10.2 ± 1.6 mM and greater than 5 mM, respectively. Also, the “Parent drug, share of uptake” value was determined as 95% in the data set with Caco-2 cells and 20% in the data set with Panc-1 cells [1].
For the compound `NC(Cc1ccccc1)C(=O)NC(Cc1ccc(O)cc1)C(=O)OCC1OC(n2cc(F)c(=O)[nH]c2=O)CC1O` [5′-L-Phenylalanyl-L-tyrosyl-floxuridine], the results for the 50% growth inhibitory concentration (GI50) in the data set on AsPC-1 cells (setting [4]) and in the data set on Panc-1 cells [2] (setting [5]) were 4.2 ± 0.1 mM and 3 ± 0.3 mM, respectively. The “Prodrug, share of uptake” value is reported as 45% in the data set on Caco-2 cells and 98% with Panc-1 cells [1]. Also, the half-life in data set [3] came out at 40.4 ± 0.2 min.
The corresponding values for `Nc1ccn(C2OC(COC(=O)C(Cc3ccc(O)cc3)NC(=O)C(N)Cc3ccccc3)C(O)C2(F)F)c(=O)n1` [5′-L-Phenylalanyl-L-tyrosyl-gemcitabine] are 5 ± 0.3 mM, 3.2 ± 0.7 mM, 6%, 9% and 30.2 ± 1.1 min.
As for `O=c1[nH]c(=O)n([C@H]2C[C@H](O)[C@@H](CO)O2)cc1F` [Floxuridine, 5-fluoro-2′-deoxyuridine], the half-life in data set [3] came out at 41.7 ± 6.8 min. Besides, the uptake amount entry in the data set on Panc-1 cells [1] was “not observed”. Also, the GI50 – broadly, the concentration at which growth is held to half of that of the control – with Panc-1 cells [2] (Homo sapiens, PANC-1, tested 5 to 0.078 mmol/L) is greater than 5 mM.
